{"source": "patent US12064405B2", "about": "“Immunosuppressant comprising TSAHC or a pharmaceutically acceptable salts thereof as an active ingredient” (Seoul National University R&DB Foundation, priority 2020, dated 2024)", "key": {"cells expressing TM4SF5": {"system": "cells expressing TM4SF5", "experiment": "Activation of glycolytic function (acidification of extracellular solution, Seahorse)", "type": "cell-based", "method": "The cells expressing TM4SF5 were treated with vehicle, a negative control compound (4′-methoxy-4-dihydroxychalcone) or TSAHC. Then, the degree of activation of glycolytic function was measured by measuring the acidification of the extracellular solution due to glycolysis while additionally adding glucose at various concentrations using Seahorse equipment."}, "[1]": {"system": "cell lines expressing TM4SF5", "experiment": "qRT-PCR of M1-type macrophage chemokines/cytokines CCL2, TNF-α, IL-6, IL-1β", "type": "cell-based", "conditions": "cell line expressing TM4SF5, LPS and IFN-γ", "method": "Cell lines not expressing TM4SF5 (EV) or cell lines expressing thereof (TM4SF5) were treated (+) or not treated with LPS and IFN-γ, treated (+) or not treated with 2-DG (2-Deoxy-D-glucose) as a drug for inhibiting glycolysis at a given concentration, and additionally treated (+) or not treated with TSAHC (−). Then, the mRNA expression levels of CCL2, TNF-α, IL-6, and IL-1β, the chemokines/cytokines indicating the activation of M1-type macrophages, were confirmed by qRT-PCR."}, "[2]": {"system": "M1 and M2 type macrophages differentiated from THP-1 cells", "experiment": "qRT-PCR of M1 or M2 type macrophage markers in macrophages differentiated from THP-1 cells", "type": "cell-based, human", "conditions": "100 nM for 24 hours; for mRNA levels of M1 type macrophage markers (TNFα, IL1β, IL6) compared to the control group: M1 type macrophages, FIG. 12A", "method": "M1 and M2 type macrophages (MΦ) differentiated from THP-1 cells were treated with CCL20 or CXCL10 at a concentration of 100 nM for 24 hours, and then the mRNA expression levels of the markers indicating the activity as M1 or M2 type macrophages were confirmed by qRT-PCR. For M1 type macrophages, the mRNA expression levels of TNFα, IL1β and IL6 were measured, and for M2 type macrophages, the mRNA expression levels of CD206 and FN1 were measured."}, "[3]": {"system": "M0 THP-1 cells expressing TM4SF5", "experiment": "Glycolytic Proton Efflux Rate (GlycoPER) in M0 THP-1 cells treated with CCL20 or CXCL10", "type": "cell-based, human", "conditions": "300 ng/ml for 24 hours, FIG. 9", "method": "THP-1 cells infected with a lentivirus with an empty vector not expressing TM4SF5 or a lentivirus expressing TM4SF5 were treated with 100 nM phorbol-12-myristate-13-acetate (PMA) for 24 hours to differentiate into M0 cells (experimental condition to confirm the not repetitive effects of cytokines/chemokines in the early stage by representing the case before differentiation into M1 type), and then, 300 ng/ml of CCL20 or CXCL10 was treated for 24 hours, and basal and compensatory Glycolytic Proton Efflux Rate (GlycoPER) were measured using a Seahorse XFp device."}, "Ccl20": {"system": "Ccl20", "experiment": "CCl4-induced liver damage, inflammation and fibrosis with suppression of Ccl20 expression by siRNA", "type": "in vivo, mouse", "method": "12-week-old normal WT or Tm4sf5^−/− KO mice (5 per group) were intraperitoneally injected with CCl4 (TRC, Canada, C176905, 10 mg/kg/40% olive oil) twice a week for 4 weeks. Ccl20 siRNA [sense 5′-GGAGGAAAUGAUCACAGCUtt-3′ (SEQ. ID. NO: 101), antisense 5′-AGCUGUGAUCAUUUCCUCCtt-3 (SEQ. ID. NO: 102) was purchased from Ambion (Austin Texas, USA) and diluted to an appropriate concentration in PBS. Ccl20 siRNA (1.66 mg/kg) or vehicle was intravenously injected into the mice twice a week. After 4 weeks, liver and blood samples of the animals were obtained.\nAs shown in the scheme of FIG. 5, 12-week-old normal C57BL/6 mice were intraperitoneally injected with CCl4 (40% in olive oil) at a concentration of 10 mg/kg body weight twice a week for 26 days. At the same time, siRNA against CCL20 (Amibon, Austin Texas, USA, Assay ID 72932, sense 5′-GGAGGAAAUGAUCACAGCUtt-3′, antisense 5′-AGCUGUGAUCAUUUCCUCCtt-3′) dissolved in PBS at a concentration of 1.66 mg/kg was intravenously injected for 26 days before the CCl4 injection. After 26 days of the injection, the mice were sacrificed, and the liver tissue was obtained. Then, the disease state of the liver was investigated by performing immunohistochemistry (IHC), Masson's trichrome staining and qRT-PCR.\nSpecifically, for H&E staining, the tissue was placed in a 60° C. oven for about 20 minutes to separate the tissue from paraffin, and when the paraffin melted, the tissue was immersed in xylene three times for 5 minutes each. The tissue was put into 100%→90%→80%→70% ethanol→distilled water for 3 minutes each in the order, and then immersed in a hematoxylin solution for 5 minutes to react. After sufficiently washing the tissue with tap water, it was reacted with an eosin solution for about 20 minutes, and washed again with tap water. Then, the tissue was immersed in 70%→80%→90%→100% ethanol→xylene for 3 minutes each in the order for dehydration, followed by mounting on a slide.\nParaffin blocks and liver tissue sections for immunohistochemical staining were obtained from Abion Inc. (Seoul, Korea). As antibodies, F4/80 (Cell Signaling Technology), Ccl20, laminin γ2 (Santa Cruz Biotechnology) were used.\nFor Masson's trichrome staining, the tissue was first separated from paraffin and then reacted in a preheated bouin's solution for 1 hour. After rinsing the tissue with tap water until the solution was completely drained, it was reacted in a hematoxylin solution for 10 minutes, and then rinsed again with tap water. Then, the tissue was reacted in a biebrich scarlet-acid fuchsin solution for 5 minutes, immersed in distilled water, and reacted in a phosphotungstic/phosphomolybdic acid solution for 15 minutes. The tissue was immersed in an Aniline blue solution for 10 minutes and 1% acetic acid for 1 minute for dehydration. The tissue was immersed in xylene, followed by mounting on a slide."}}, "data": [{"compound": "4′-methoxy-4-dihydroxychalcone [control compound, reference compound]", "values": [{"measurement": "glycolysis of the cells not expressing TM4SF5 (EV)", "setting": "cells expressing TM4SF5; EV cell line, FIG. 8B", "value": "not changed"}, {"measurement": "glycolytic function of cells expressing TM4SF5", "setting": "cells expressing TM4SF5; various concentrations of glucose added, FIG. 8C", "value": "not changed"}]}, {"compound": "O=CC[C@@H](O)[C@H](O)[C@H](O)CO", "note": "[2-DG, 2-Deoxy-D-glucose, reference compound]", "values": [{"measurement": "CCL2 mRNA expression level", "setting": "[1]; FIG. 11A", "value": "decreased"}, {"measurement": "TNF-α mRNA expression level", "setting": "[1]; FIG. 11B", "value": "decreased"}, {"measurement": "IL-6 mRNA expression level", "setting": "[1]; FIG. 11C", "value": "decreased"}, {"measurement": "IL-1β mRNA expression level", "setting": "[1]; FIG. 11D", "value": "decreased"}]}, {"compound": "CCL20: chemokine used to treat THP-1-derived macrophages", "values": [{"measurement": "mRNA levels of M1 type macrophage markers (TNFα, IL1β, IL6) compared to the control group", "setting": "[2]", "value": "decreased"}, {"measurement": "mRNA levels of M2 type macrophage markers (CD206, FN1)", "setting": "[2]; M2 type macrophages, CCL20 alone or together with CXCL10, FIG. 12B", "value": "significantly increased"}, {"measurement": "glycolytic function (basal and compensatory GlycoPER) versus vehicle-treated control group", "setting": "[3]", "value": "higher"}]}, {"compound": "CXCL10: chemokine used to treat THP-1-derived macrophages", "values": [{"measurement": "mRNA levels of M1 type macrophage markers (TNFα, IL1β, IL6) compared to the control group", "setting": "[2]", "value": "decreased"}, {"measurement": "glycolytic function (basal and compensatory GlycoPER) versus vehicle-treated control group", "setting": "[3]", "value": "higher"}]}, {"compound": "Ccl20 siRNA: siRNA against CCL20 (Ambion), sense 5′-GGAGGAAAUGAUCACAGCUtt-3′, antisense 5′-AGCUGUGAUCAUUUCCUCCtt-3′ (sense GGAGGAAAUGAUCACAGCUTT; antisense AGCUGUGAUCAUUUCCUCCTT; chemistry not given here)", "values": [{"measurement": "collagen type 1 α1 chain (Col1α1) mRNA level in liver", "setting": "Ccl20; during CCl4 treatment, FIG. 6A", "value": "decreased"}, {"measurement": "Ccl20 mRNA level in liver", "setting": "Ccl20; during CCl4 treatment, FIG. 6B", "value": "decreased"}, {"measurement": "F4/80 mRNA level in liver", "setting": "Ccl20; during CCl4 treatment, FIG. 6C", "value": "decreased"}, {"measurement": "α-smooth muscle actin (Sma) mRNA level in liver", "setting": "Ccl20; during CCl4 treatment, FIG. 6D", "value": "decreased"}, {"measurement": "effect of CCl4 treatment (liver tissue damage, collagen accumulation, Ccl20 and Cxcl10 accumulation, F4/80 macrophage infiltration, laminin γ2 accumulation)", "setting": "Ccl20; siRNA 1.66 mg/kg intravenously, CCl4 10 mg/kg twice a week, 26 days, FIG. 5", "value": "significantly inhibited"}]}]}
